Assay results published in patent US20250213547A1, “METHODS OF TREATING NEUROLOGICAL DISEASES” (priority 2022, published 2025).

What was measured:
clinical = assay type: in vivo; settings: human; for Cmax: mean
Source text: The first-in-human clinical trial administered a single-rising dose and included 48 healthy men and women aged 19-55 with a body mass index between 18 kg/m2 and 30 kg/m2. […] Examples 2-5 herein further describes the trial protocol and the results, including data on the bioavailability of solution versus tablet (example 3), fed versus fasting patients (example 4), and PD data (example 5). The data obtained from this trial informed on the safe dosage range for future trials, and was included in the first-step of the modeling analysis described in example 12.
(§1) The study enrolled 48 subjects in the single rising dose study. Subjects were sorted into six cohorts and randomly assigned to treatment or placebo groups.
(§2) A prior study of soticlestat dosing in dogs guided the safety margin of minimal and maximal single dose selection for human subjects. An initial dosage of 10 mg provided a 44-fold safety margin relative to the maximum safe dosage in dogs. […] Each dose trial contained two placebo subjects. Ascending doses were tested in 2 sentinel subjects at a time to determine safety and tolerability before including the full cohort.
The analytes and internal standards were extracted by solid phase extraction or by dilution. […] Multiple analyses of pooled samples (n=6) verified intra- and inter-assay accuracy with an acceptance criteria of within 15% (CV≤15%) or 20% (CV≤20%) for the LLOQ. PK parameters were analyzed from plasma and urine concentration time data using standard non-compartmental analysis methods with Phoenix WinNonlin™ version 6.3 (Certara, Princeton, N.J. USA). All statistical analyses were performed using SAS software version 9.2 (SAS Institute Inc., Cary, N.C. USA).

[1] = both, human, in vivo
Procedure: as §1, §2
The mean values in table 6 with the superscript “a” were derived from n=3 subjects and values with superscript “b” were derived from n=4 subjects.

[2] = Healthy Japanese subjects: safety and tolerability; assay type: in vivo, human
Source text: Primary Objective: To evaluate the safety and tolerability of TAK-935 in healthy Japanese subjects when administered as single oral dose or multiple oral doses with titration. Secondary Objective: To evaluate the PK of TAK-935 in healthy Japanese subjects when administered as single oral dose or multiple oral doses with titration.
This study consisted of 2 parts, and was a randomized, double-blind, placebo-controlled study to assess safety, tolerability, and PK and PD of TAK-935 when administered orally in healthy Japanese subjects.
The primary endpoint of the study included: Safety endpoint: Percentage of subjects who experience at least 1 TEAE Secondary endpoints included:
• Laboratory tests. • Vital signs. • ECG parameters.

[3] = Adult DEE patients (Part A/Part B): safety and tolerability; settings: human, in vivo, 60 days
[4] = both sexes, in vivo, po, 200 mg
[5] = both sexes, in vivo, po, 600 mg
[6] = both sexes, in vivo, po, 900 mg
[7] = both sexes, in vivo, po, 1350 mg
[8] = multiple doses 100-300 mg BID, TAK-935 group

## O=C(c1cccnc1-c1ccncc1)N1CCC(O)(Cc2ccccc2)CC1 [soticlestat]
clinical; both sexes, in vivo
  CL renal: 3.83 to 10.3 mL/min
clinical; both sexes, in vivo, po
  Tmax: 15 to 31.2 min
  half-life: 49.2 to 430 min
clinical; both sexes, in vivo, po, 15 mg
  Tmax: 15 min
  Cmax: 43.5 ng/mL
clinical; both sexes, in vivo, po, 50 mg
  AUC(0-inf): 172 ng·h/mL
  AUC(0-t): 169 ng·h/mL
  Tmax: 15 min
  Vd/F: 1500 L
  Cmax: 210 ng/mL
clinical; [4]
  AUC(0-inf): 621 ng·h/mL
  AUC(0-t): 563 ng·h/mL
  Tmax: 15 min
  Vd/F: 2240 L
  Cmax: 571 ng/mL
clinical; [5]
  Tmax: 31.2 min
  Vd/F: 993 L
  Cmax: 4550 ng/mL
clinical; [6]
  AUC(0-inf): 7660 ng·h/mL
  AUC(0-t): 7620 ng·h/mL
  Vd/F: 1230 L
  Cmax: 5080 ng/mL
clinical; [7]
  AUC(0-inf): 13500 ng·h/mL
  AUC(0-t): 13500 ng·h/mL
  Vd/F: 852 L
  Cmax: 7950 ng/mL
clinical; both sexes, plasma, single oral solution dose 15 mg, read-out: Vz/F, mean
  Vd/F: 732 L
clinical; both, in vivo
  time of second smaller plasma peak post-dose: approximately 10 hours
clinical; both, in vivo, po, 15 mg
  t1/2z, mean: 0.820 h
clinical; both, in vivo, po, 50 mg
  t1/2z, mean: 2.99 h
clinical; both, in vivo, po, 200 mg
  t1/2z, mean: 4.39 h
clinical; both, in vivo, po, 600 mg
  AUC(0-t), mean: 5790 ng·h/mL
  AUC∞, mean: 5810 ng·h/mL
  t1/2z, mean: 4.77 h
clinical; both, in vivo, po, 900 mg
  Tmax, median: 30 min
  t1/2z, mean: 7.16 h
clinical; both, in vivo, po, 1350 mg
  Cmax, mean: 7953 ng/mL
  t1/2z, mean: 5.31 h
clinical; in vivo
  dose-proportionality slope, AUC(0-t) (log-log): 1.38 (1.28, 1.48)
  dose-proportionality slope, AUC∞ (log-log): 1.42 (1.31, 1.53)
  dose-proportionality slope, Cmax (log-log): 1.22 (1.11, 1.32)
clinical; in vivo, po, 15 mg
  CL/F, mean: 689 L/h
clinical; in vivo, po, 50 mg
  CL/F, mean: 549 L/h
clinical; in vivo, po, 200 mg
  CL/F, mean: 355 L/h
clinical; in vivo, po, 600 mg
  CL/F, mean: 145 L/h
clinical; in vivo, po, 900 mg
  CL/F, mean: 124 L/h
clinical; in vivo, po, 1350 mg
  CL/F, mean: 112 L/h
[1]
  number of TEAEs reported: 29 TEAEs
[2]; healthy Japanese subjects
  deaths, SAEs, TEAEs leading to discontinuation: No deaths, SAEs, or TEAEs leading to study drug discontinuation
  intensity of TEAEs: All of the TEAEs were mild
[2]; [8]
  subjects who experienced TEAEs: 5 subjects
  subjects with drug-related TEAEs: 3 subjects
[2]; single dose up to 1200 mg and multiple doses 100 to 300 mg BID
  tolerability: well tolerated
[3]
  Insomnia, n participants: 3 n
  Lethargy, n participants: 2 n
  Seizure, n participants: 3 n
